These results are taken from patent publication US6214836A, “Water soluble analogues of 20(S)-camptothecin” (Dr. Reddy's Research Foundation, priority 1996, dated 2001).

Data set [1] concerns NCI's 60 human tumor cell line. The experiment in a line: NCI 60 human tumor cell line assay (mean, Table 1). The note with it: read-out: IC 50 (mean value of the minimum drug concentration required to produce 50% cell growth inhibition (GI50)). In kind it is cell-based. As to the method: (§1) Inoculates were allowed a preincubation period of 24 h at 37° C. for stabilization. […] Readings are transferred to a microcomputer and fmal reports are generated using especially developed software.
^a IC 50 = the mean value of the minimum drug concentration (μm) of
NCI's 60 human tumor cell line assay.

The test system of a further data set is topoisomerase I. The note with it: cited from earlier work.
In data set [2] the test system is Human Serum Albumin (HSA). The following applies: in the presence of HSA at 37° C.; vs 20(S) camptothecin and 9-aminocamptothecin; cited from earlier work.
Another data set relates to humans. The note with it: cited from earlier work.
The test system of another data set is HCT 116. In words: 50% growth inhibition, COLON panel. In kind it is cell-based. The following applies: Homo sapiens, read-out: 50% Growth Inhibition (GI 50); HCT 116, colon; 48 h. As to the method:
as §1

The next data set concerns SW 620. The experiment in a line: 50% growth inhibition, COLON panel. In kind it is cell-based. The following applies: Homo sapiens, read-out: 50% Growth Inhibition (GI 50); SW 620, colon; 48 h. As to the method: as §1
A further data set concerns SF-539. In words: 50% growth inhibition, CNS panel. In kind it is cell-based. The note with it: Homo sapiens, read-out: 50% Growth Inhibition (GI 50); SF-539, CNS; 48 h. As to the method: as §1
For a further data set, the system named is SF-268. The experiment in a line: 50% growth inhibition, CNS panel. The following applies: Homo sapiens, SF-268, 48 h, read-out: 50% Growth Inhibition (GI 50). In kind it is cell-based. The procedure: as §1
The next data set concerns SNB-19. The experiment in a line: 50% growth inhibition, CNS panel. In kind it is cell-based. The following applies: Homo sapiens, read-out: 50% Growth Inhibition (GI 50); SNB-19, CNS; 48 h. The procedure:
as §1

The next data set relates to ACHN. The experiment in a line: 50% growth inhibition, RENAL panel. In kind it is cell-based. The following applies: Homo sapiens, read-out: 50% Growth Inhibition (GI 50), 48 h. The procedure:
as §1

The test system of the next data set is 786-O. The experiment in a line: 50% growth inhibition, RENAL panel. The note with it: Homo sapiens, 786-0, read-out: 50% Growth Inhibition (GI 50), 48 h. In kind it is cell-based. As to the method: as §1
The next data set relates to CAKI-1. In words: 50% growth inhibition, RENAL panel. In kind it is cell-based. The note with it: Homo sapiens, read-out: 50% Growth Inhibition (GI 50); CAKI-1, renal; 48 h. As to the method:
as §1

The subject of another data set is MOLT-4. In words: 50% growth inhibition, […] panel. In kind it is cell-based. The note with it: Homo sapiens, read-out: 50% Growth Inhibition (GI 50); MOLT-4, leukemia; 48 h. The procedure: as §1
The test system of a further data set is CCRF-CEM. The experiment in a line: 50% growth inhibition, […] panel. In kind it is cell-based. The following applies: Homo sapiens, read-out: 50% Growth Inhibition (GI 50), leukemia, 48 h. As to the method:
as §1

The next data set deals with SR. In words: 50% growth inhibition, […] panel. In kind it is cell-based. The following applies: Homo sapiens, read-out: 50% Growth Inhibition (GI 50), leukemia, 48 h. The procedure:
as §1

Another data set relates to MCF7/ADR. The experiment in a line: 50% growth inhibition, BREAST panel. In kind it is cell-based. The note with it: Homo sapiens, NCI/ADR-RES, read-out: 50% Growth Inhibition (GI 50), 48 h. As to the method:
as §1

Another data set deals with T 47D. The experiment in a line: 50% growth inhibition, BREAST panel. In kind it is cell-based. The following applies: Homo sapiens, T47D, read-out: 50% Growth Inhibition (GI 50), 48 h. The procedure: as §1
A further data set concerns MCF-7. The experiment in a line: 50% growth inhibition, BREAST panel. In kind it is cell-based. The note with it: Homo sapiens, MCF7, read-out: 50% Growth Inhibition (GI 50); MCF-7, breast; 48 h. The procedure: as §1
In a further data set the test system is H 460. In words: 50% growth inhibition, NSLC panel. In kind it is cell-based. The note with it: Homo sapiens, NCI-H460, read-out: 50% Growth Inhibition (GI 50); H 460, NSLC; 48 h. The procedure:
as §1

The test system of the next data set is H 522. The experiment in a line: 50% growth inhibition, NSLC panel. In kind it is cell-based. The note with it: Homo sapiens, NCI-H522, read-out: 50% Growth Inhibition (GI 50); H 522, NSLC; 48 h. As to the method: as §1
Another data set has as its system HOP 62. The experiment in a line: 50% growth inhibition, NSLC panel. In kind it is cell-based. The note with it: Homo sapiens, read-out: 50% Growth Inhibition (GI 50); HOP 62, NSLC; 48 h. As to the method: as §1
For another data set, the system named is HT 29. In words: 50% growth inhibition, COLON panel. In kind it is cell-based. The following applies: Homo sapiens, read-out: 50% Growth Inhibition (GI 50); HT 29, colon; 48 h. The procedure:
as §1

The next data set concerns SF 295. In words: 50% growth inhibition, CNS panel. In kind it is cell-based. The following applies: Homo sapiens, read-out: 50% Growth Inhibition (GI 50); SF 295, CNS; 48 h. The procedure: as §1
A further data set relates to UACC 62. In words: 50% growth inhibition, MELANOMA panel. In kind it is cell-based. The note with it: Homo sapiens, read-out: 50% Growth Inhibition (GI 50); UACC 62, melanoma; 48 h. As to the method: as §1
For a further data set, the system named is M 14. The experiment in a line: 50% growth inhibition, MELANOMA panel. In kind it is cell-based. The following applies: Homo sapiens, M14, read-out: 50% Growth Inhibition (GI 50); M 14, melanoma; 48 h. As to the method:
as §1

For another data set, the system named is LOX IMVI. In words: 50% growth inhibition, MELANOMA panel. In kind it is cell-based. The note with it: Homo sapiens, read-out: 50% Growth Inhibition (GI 50), 48 h. As to the method:
as §1

The next data set has as its system HL 60. In words: 50% growth inhibition, […] panel. In kind it is cell-based. The note with it: Homo sapiens, read-out: 50% Growth Inhibition (GI 50); HL 60, leukemia; 48 h. As to the method: as §1
In a further data set the test system is H 23. In words: 50% growth inhibition, NSLC panel. In kind it is cell-based. The note with it: Homo sapiens, NCI-H23, read-out: 50% Growth Inhibition (GI 50); H 23, NSLC; 48 h. As to the method:
as §1

For data set [3] the following is noted: vs 20(RS)-camptothecin of the formula 7; cited from earlier work.

Molecules are shown by their SMILES. Read-outs that look alike come from different tables or passages of the source.

`CC[C@@]1(O)C(=O)OCc2c1cc1n(c2=O)C(CC(=O)OC)c2cc3cc(O)ccc3nc2-1` (stereo partly drawn) [Example 3, 10-hydroxy-5-carbomethoxymethylcamptothecin]: in [1] (Homo sapiens, 48 h), the IC50 was determined as 4890 nM.
Turning to `C=C1C(=O)OCc2c1cc1n(c2=O)Cc2c-1nc1ccc(O)cc1c2CC` [formula 8], the “topoisomerase I inhibition (in words)” value in the data set on topoisomerase I was “potent camptothecin like inhibition of topoisomerase I activity”.
Consider `CCc1c2c(nc3ccc(O)cc13)-c1cc3c(c(=O)n1C2)COC(=O)[C@]3(O)CC` [SN-38, 7-ethyl-10-hydroxycamptothecin], for which the “percentage (%) of lactone form at equilibrium (in words)” value (from here on “percentage (%) of lactone form”) in data set [2] is on record as “higher percentage (%) of lactone form at equilibrium”.
On to `CC[C@@]1(O)C(=O)OCc2c1cc1n(c2=O)Cc2cc3ccccc3nc2-1` [20(S)-Camptothecin], for which, in the data set with humans, the “toxicity (in words)” value is “high toxicity problems”. The “side effects on humans (in words)” value in the data set with humans (humans) was “unacceptable side effects on humans”. Besides, the “topoisomerase I inhibition (in words)” value in the data set with topoisomerase I is on record as “inhibitor of topoisomerise I”.
For `CC[C@@]1(O)C(=O)OCc2c1cc1n(c2=O)C(CC(=O)OC)c2cc3ccccc3nc2-1` (stereo partly drawn) [Example 1, 5-Carbomethoxymethylcamptothecin], in data set [1] (Homo sapiens, 48 h), the IC50 worked out at 16200 nM.
On to `CC[C@@]1(O)C(=O)OCc2c1cc1n(c2=O)Cc2cc3c(CN(C)C)c(O)ccc3nc2-1` [Topotecan, topotecan], for which the “percentage (%) of lactone form” value in [2] is “higher percentage (%) of lactone form at equilibrium”.
On to `CC[C@@]1(O)C(=O)OCc2c1cc1n(c2=O)C(CC(C)=O)c2cc3ccccc3nc2-1` (stereo partly drawn) [Example 2, 5-(2'-oxopropyl)camptothecin], for which the GI50 in the data set with HCT 116 was 5620 nM; in the data set with SW 620, 6020 nM; with SF-539, 3890 nM; in the data set with SF-268 it was 4260 nM; with SNB-19, 6450 nM; with ACHN it was 2880 nM. Besides, the GI50 in the data set with 786-O turned out to be 2950 nM; in the data set on CAKI-1 it was 2630 nM; with MOLT-4 it was 770 nM; in the data set on CCRF-CEM, 380 nM; in the data set with SR it was 180 nM; with MCF7/ADR it was 1860 nM. For the same compound, the GI50 in the data set on T 47D came out at 2630 nM; with MCF-7, 3630 nM; with H 460, 1120 nM; in the data set on H 522, 3980 nM; in the data set with HOP 62, 4460 nM. The IC50 in data set [1] (Homo sapiens, 48 h) was found to be 8310 nM.
As to `CC[C@@]1(O)C(=O)OCc2c1cc1n(c2=O)C(CC(C)=O)c2cc3c([N+](=O)[O-])cccc3nc2-1` (stereo partly drawn) [Example 4, 9-nitro-5-(2'-oxopropyl)camptothecin], the GI50 is 1170 nM in the data set with HT 29; 570 nM in the data set with HCT 116; 70 nM with SW 620; 260 nM in the data set on SF-539; 190 nM in the data set with SF 295; 330 nM in the data set on UACC 62. Moreover, the GI50 with M 14 is 300 nM; in the data set with LOX IMVI, 380 nM; in the data set with ACHN, 210 nM; in the data set with 786-O, 300 nM; with CAKI-1, 210 nM; in the data set with CCRF-CEM it was 90 nM. The GI50 stood at 20 nM with SR; 230 nM with HL 60; 100 nM in the data set on H 460; 260 nM with HOP 62; 240 nM with H 23. In addition, the IC50 in data set [1] (Homo sapiens, 48 h) worked out at 1000 nM.
With `CCc1c2c(nc3ccc(OC(=O)N4CCC(N5CCCCC5)CC4)cc13)-c1cc3c(c(=O)n1C2)COC(=O)[C@]3(O)CC` [CPT-11], the “percentage (%) of lactone form” value in data set [2] is reported as “higher percentage (%) of lactone form at equilibrium”.
For `CC[C@@]1(O)C(=O)OCc2c1cc1n(c2=O)C(CC(=O)OC)c2cc3c(OC)cccc3nc2-1` (stereo partly drawn) [Example 10, 9-methoxy-5-carbomethoxymethylcamptothecin], in data set [1] (mean over NCI's 60 human tumor cell lines, 48 h incubation), the IC50 was determined as 16200 nM.
`CCc1c2c(nc3ccc(OC)cc13)-c1cc3c(c(=O)n1C2)COC(=O)[C@]3(N)CC` [formula 6]: the “in vivo antitumor activity (in words)” value in data set [3] is reported as “increased in vivo antitumor activity than 20(RS)-camptothecin”.
`CC[C@@]1(O)C(=O)OCc2c1cc1n(c2=O)C(CC(=O)OC)c2cc3c([N+](=O)[O-])cccc3nc2-1` (stereo partly drawn) [Example 5, 9-Nitro-5-carbomethoxymethylcamptothecin]: the IC50 in data set [1] (Homo sapiens, 48 h) is 15800 nM.
